Assay results as given in patent US10899754B2, “Modulators of indoleamine 2,3-dioxygenase” (GLAXOSMITHKLINE INTELLECTUAL PROPERTY DEVELOPMENT LIMITED, priority 2016, dated 2021).

What was measured:
[1] = system: human epithelial HeLa cells; test: HeLa cytotoxicity assay (CellTiter-Glo); assay type: cell-based; details: pCC50
Experimental: (§1) Compounds of the present invention were tested via high-throughput cellular assays utilizing detection of kynurenine via mass spectrometry and cytotoxicity as end-points. For the mass spectrometry and cytotoxicity assays, human epithelial HeLa cells (CCL-2; ATCC®, Manassas, Va.) were stimulated with human interferon-γ (IFN-γ) (Sigma-Aldrich Corporation, St. Louis, Mo.) to induce the expression of indoleamine 2, 3-dioxygenase (IDO1). Compounds with IDO1 inhibitory properties decreased the amount of kynurenine produced by the cells via the tryptophan catabolic pathway. Cellular toxicity due to the effect of compound treatment was measured using CellTiter-Glo® reagent (CTG) (Promega Corporation, Madison, Wis.), which is based on luminescent detection of ATP, an indicator of metabolically active cells.
(§2) In preparation for the assays, test compounds were serially diluted 3-fold in DMSO from a typical top concentration of 1 mM or 5 mM and plated at 0.5 μL in 384-well, polystyrene, clear bottom, tissue culture treated plates with lids (Greiner Bio-One, Kremsmünster, Austria) to generate 11-point dose response curves. Low control wells (0% kynurenine or 100% cytotoxicity) contained either 0.5 μL of DMSO in the presence of unstimulated (−IFN-γ) HeLa cells for the mass spectrometry assay or 0.5 μL of DMSO in the absence of cells for the cytotoxicity assay, and high control wells (100% kynurenine or 0% cytotoxicity) contained 0.5 μL of DMSO in the presence of stimulated (+IFN-γ) HeLa cells for both the mass spectrometry and cytotoxicity assays.
(§3) Frozen stocks of HeLa cells were washed and recovered in DMEM high glucose medium with HEPES (Thermo Fisher Scientific, Inc., Waltham, Mass.) supplemented with 10% v/v certified fetal bovine serum (FBS) (Thermo Fisher Scientific, Inc., Waltham, Mass.), and 1× penicillin-streptomycin antibiotic solution (Thermo Fisher Scientific, Inc., Waltham, Mass.). The cells were diluted to 100,000 cells/mL in the supplemented DMEM medium. 50 μL of either the cell suspension, for the mass spectrometry assay, or medium alone, for the cytotoxicity assay, were added to the low control wells, on the previously prepared 384-well compound plates, resulting in 5,000 cells/well or 0 cells/well respectively. IFN-γ was added to the remaining cell suspension at a final concentration of 10 nM, and 50 μL of the stimulated cells were added to all remaining wells on the 384-well compound plates. The plates, with lids, were then placed in a 37° C., 5% CO2 humidified incubator for 2 days.
(§4) Following incubation, the 384-well plates were removed from the incubator and allowed to equilibrate to room temperature for 30 minutes. For the cytotoxicity assay, CellTiter-Glo® was prepared according to the manufacturer's instructions, and 10 μL were added to each plate well. After a twenty minute incubation at room temperature, luminescence was read on an EnVision® Multilabel Reader (PerkinElmer Inc., Waltham, Mass.). For the mass spectrometry assay, 10 μL of supernatant from each well of the compound-treated plates were added to 40 μL of acetonitrile, containing 10 μM of an internal standard for normalization, in 384-well, polypropylene, V-bottom plates (Greiner Bio-One, Kremsmünster, Austria) to extract the organic analytes. Following centrifugation at 2000 rpm for 10 minutes, 10 μL from each well of the acetonitrile extraction plates were added to 90 μL of sterile, distilled H2O in 384-well, polypropylene, V-bottom plates for analysis of kynurenine and the internal standard on the RapidFire 300 (Agilent Technologies, Santa Clara, Calif.) and 4000 QTRAP MS (SCIEX, Framingham, Mass.). MS data were integrated using Agilent Technologies' RapidFire Integrator software, and data were normalized for analysis as a ratio of kynurenine to the internal standard. […]

[2] = target: indoleamine 2, 3-dioxygenase (IDO1) (Homo sapiens, UniProt P14902); test: IDO1 HeLa RapidFire MS assay (kynurenine detection by mass spectrometry); assay type: cell-based; parameters: to induce the expression of indoleamine 2, 3-dioxygenase (IDO1); details: HeLa cells, pIC50, read-out: IDO1_HELA_PXC50 (converted)
Experimental: IDO1 HeLa RapidFire MS Assay
as §1, §2, §3, §4

Sequence of indoleamine 2, 3-dioxygenase (IDO1) (P14902 whole entry): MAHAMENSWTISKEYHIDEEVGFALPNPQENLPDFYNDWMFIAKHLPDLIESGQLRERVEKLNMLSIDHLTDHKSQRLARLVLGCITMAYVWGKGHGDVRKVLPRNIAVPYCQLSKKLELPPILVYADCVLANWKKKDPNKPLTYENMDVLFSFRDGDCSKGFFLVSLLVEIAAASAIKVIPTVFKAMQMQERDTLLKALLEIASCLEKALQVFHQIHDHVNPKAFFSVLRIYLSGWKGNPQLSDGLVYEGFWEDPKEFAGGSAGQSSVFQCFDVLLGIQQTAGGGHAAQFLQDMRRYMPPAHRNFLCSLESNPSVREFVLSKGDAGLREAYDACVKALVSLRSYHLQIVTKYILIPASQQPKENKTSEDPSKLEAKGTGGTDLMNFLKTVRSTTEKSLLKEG

| SMILES | HELA_IDO1_TOX_PXC50 [1] | IC50 [2] [µM] |
| --- | --- | --- |
| CC(C)CN(CC(C)C)c1ccc(C(C)CC(=O)O)cc1Nc1ccc(NS(C)(=O)=O)cn1 (stereo not shown) [example 200, 3-{4-[bis(2-methylpropyl)amino]-3-[(5-methanesulfonamido-pyridin-2-yl)amino]phenyl}butanoic acid] | <5 | > 10 |
| COCc1ncc(Nc2cc(C(C)CC(=O)O)ccc2N(CC(C)C)CC(C)C)s1 (stereo not shown) [example 189, 3-{4-[bis(2-methylpropyl)amino]-3-{[2-(methoxymethyl)-1,3-thiazol-5-yl]amino}phenyl}butanoic acid] | <5 | 0.2 |
| CC(C)CN(c1ccc(C(C)CC(=O)O)cc1NC1=N[C@H](c2ccccc2)CS1)C1CCCCC1 (stereo partly drawn) [example 148, 3-{4-[cyclohexyl(2-methypropyl)amino]-3-{[(4R)-4-phenyl-4,5-dihydro-1,3-thiazol-2-yl]amino}phenyl}butanoic acid] | <5 | 0.631 |
| CC(C)CN(CC(C)C)c1ccc(-c2ccccc2C(=O)O)cc1Nc1ccn(C)n1 [example 280, 4′-[bis(2-methylpropyl)amino]-3′-[(1-methyl-1H-pyrazol-3-yl)amino]-[1,1′-biphenyl]-2-carboxylic acid] | <5 | 2.51 |
| CC(C)CN(CC(C)C)c1ccc(C(C)CC(=O)O)cc1Nc1nc(C2CC2)cs1 (stereo not shown) [example 141, 3-{4-[bis(2-methylpropyl)amino]-3-[(4-cyclopropyl-1,3-thiazol-2-yl)amino]phenyl}butanoic acid] | <5 | 0.794 |
| CC(C)CN(c1ccc(-c2ccccc2C(=O)O)cc1Nc1nc(C(F)(F)F)ns1)C1CCN(C(=O)OC(C)(C)C)CC1 [example 273, 4′-({1-[(tert-butoxy)carbonyl]piperidin-4-yl)-(2-methylpropyl)amino)-3′-{[3-(trifluoromethyl)-1,2,4-thiadiazol-5-yl]amino}-[1,1′-biphenyl]-2-carboxylic acid] | <5 | 0.00794 |
| CC(C)CN(CC(C)C)c1ccc(C(C)CC(=O)O)cc1NC1CCC(C(=O)O)CC1 (stereo not shown) [example 198, 4-({2-[bis(2-methylpropyl)amino]-5-(1-carboxypropan-2-yl)phenyl}amino)cyclo-hexane-1-carboxylic acid] | <5 | > 10 |
| CC(C)CN(c1ccc(-c2c[nH]nc2C(=O)O)cc1Nc1nc2ccccc2o1)C1CCCCC1 [example 175, 4-{3-[(1,3-benzoxazol-2-yl)amino]-4-[cyclohexyl(2-methylpropyl)amino]phenyl}-1H-pyrazole-3-carboxylic acid] | <5 | 5.01 |
| COCc1ccc(Nc2cc(C(C)CC(=O)O)ccc2N(CC(C)C)CC(C)C)nc1 (stereo not shown) [example 193, 3-{4-[bis(2-methylpropyl)amino]-3-{[5-(methoxymethyl)pyridin-2-yl]amino}phenyl}butanoic acid] | <5 | 0.1 |
| CC(C)CN(CC(C)C)c1ccc(C(C)CC(=O)O)cc1Nc1noc(-c2ccccc2)n1.O=C(O)C(F)(F)F (stereo not shown) [example 122, 3-{4-[bis(2-methylpropyl)amino]-3-[(5-phenyl-1,2,4-oxadiazol-3-yl)amino]phenyl}butanoic acid] | <4.3 | 25.1 |
| CC(C)CN(CC(C)C)c1ccc(C(C)CC(=O)O)cc1Nc1nc2c(s1)CCCC2 (stereo not shown) [example 131, 3-{4-[bis(2-methylpropyl)amino]-3-[(4,5,6,7-tetrahydro-1,3-benzothiazol-2-yl)amino]phenyl}butanoic acid] | 4.7 | 0.631 |
| CC(C)CN(c1ccc(-c2cccnc2C(=O)O)cc1Nc1nc(Cl)ns1)C1CCOCC1 [example 270, 3-{3-[(3-chloro-1,2,4-thiadiazol-5-yl)amino]-4-[(2-methylpropyl)(oxan-4-yl)amino]phenyl}pyridine-2-carboxylic acid] | <5 | 1.58 |
| CC(C)CN(c1ccc(-c2cccnc2C(=O)O)cc1Nc1nc2ccccc2[nH]1)C1CCCCC1 [example 278, 3-{3-[(1H-1,3-benzodiazol-2-yl)amino]-4-[cyclohexyl(2-methylpropyl)amino]phenyl}pyridine-2-carboxylic acid] | <5 | 0.0501 |
| COCCN(c1ccc(-c2ccccc2C(=O)O)cc1Nc1nc2ccccc2[nH]1)C1CCCCC1 [example 285, 3′-[(1H-1,3-benzodiazol-2-yl)amino]-4′-[cyclohexyl(2-methoxyethyl)amino]-[1,1′-biphenyl]-2-carboxylic acid] | <5 | 0.794 |
| CC(C)CN(CC(C)C)c1ccc(C(C)CC(=O)O)cc1Nc1ccsc1 (stereo not shown) [example 143, 3-{4-[bis(2-methylpropyl)amino]-3-[(thiophen-3-yl)amino]phenyl}butanoic acid] | <5 | 0.316 |
| CC(C)CN(c1ccc([C@H](C)CC(=O)O)cc1NC(C)C)C1CCCCC1 [example 180, (3R)-3-{4-[cyclohexyl(2-methylpropyl)amino]-3-[(propan-2-yl)amino]phenyl}butanoic acid] | <5 | 3.98 |
| CC(C)CN(c1ccc(-c2ncccc2C(=O)O)cc1Nc1nc2ccccc2o1)C1CCCCC1 [example 292, 2-{3-[(1,3-benzoxazol-2-yl)amino]-4-[cyclohexyl(2-methylpropyl)amino]phenyl}pyridine-3-carboxylic acid] | <5 | 0.794 |
| CC(C)CN(c1ccc(-c2ccccc2C(=O)NS(C)(=O)=O)cc1Nc1nc(C(F)(F)F)ns1)C1CCCCC1 [example 282, 4′-[cyclohexyl(2-methylpropyl)amino]-N-methanesulfonyl-3-′ {[3-(trifluoromethyl)-1,2,4-thiadiazol-5-yl]amino}-[1,1′-biphenyl]-2-carboxamide] | <5 | 0.0501 |
| CC(C)CN(CC(C)C)c1ccc(C(C)CC(=O)O)cc1Nc1nc(-c2ccncc2)cs1 (stereo not shown) [example 130, 3-{4-[bis(2-methylpropyl)amino]-3-{[4-(pyridin-4-yl)-1,3-thiazol-2-yl]amino]phenyl}butanoic acid] | <4.3 | 1.58 |
| CC(C)CN(CC(C)C)c1ccc(C(C)CC(=O)O)cc1Nc1nnc(N)s1 (stereo not shown) [example 208, 3-{3-[(5-amino-1,3,4-thiadiazol-2-yl)amino]-4-[bis(2-methylpropyl)amino]phenyl}butanoic acid] | <5 | 1.58 |
| CC(C)CN(CC(C)C)c1ccc(C(C)CC(=O)O)cc1Nc1nnc(C2CC2)o1.O=C(O)C(F)(F)F (stereo not shown) [example 126, 3-{4-[bis(2-methylpropyl)amino]-3-[(5-cyclopropyl-1,3,4-oxadiazol-2-yl)amino]phenyl}butanoic acid] | <4.3 | 0.631 |
| CC(C)CN(c1ccc(C(C)CC(=O)O)cc1Nc1nc2ccccn2n1)C1CCCCC1 (stereo not shown) [example 145, 3-{4-[cyclohexyl(2-methylpropyl)amino]-3-({[1,2,4]triazolo[1,5-a]pyridin-2-yl)amino)phenyl}butanoic acid] | <5 | 0.794 |
| CC(C)CN(CC(C)C)c1ccc(C(C)CC(=O)O)cc1Nc1ccc(CO)cn1 (stereo not shown) [example 194, 3-{4-[bis(2-methylpropyl)amino]-3-{[5-(hydroxymethyl)pyridin-2-yl]amino}phenyl}butanoic acid] | <5 | 0.2 |
